Test results published in US10835540B2, “Pharmaceutical use” (Lucolas-M.D. Ltd., priority 2011, dated 2020).

System: mastodynia
Test: Previous prescriptions for pre-menstrual breast pain (anamnesis, Example 8)
Format: in vivo, human
Conditions: Example 8 patient; for effect of previous prescription on breast pain symptoms: 'The same applies' in b116 refers to 'basically without any effect'
Description: Pre-menstrual syndrome with symptoms of strong pain in both breasts since puberty. Dynamic increase of the symptoms with extremely strong tactile sensitivity, strong sensation of swelling and tension with pain symptoms diffusely radiating into the chest and the arms, which becomes virtually unbearable until the beginning of the menstruation. Unable to work because of these conditions for 2-4 days per month since 3 years. Intimate touching not possible for 14 days per month due to the pathologic tactile hyper-sensitivity. Fading-away of the symptoms only 7-10 days after the beginning of the menstruation.

Structure (SMILES)	effect on breast pain symptoms (20 mg)	side-effects (20 mg, mainly cardiovascular, led to quitting the therapy)	effect of previous prescription on breast pain symptoms
CC/C(=C(\c1ccccc1)c1ccc(OCCN(C)C)cc1)c1ccccc1 [Tamoxifen]	considerable alleviation of the symptoms	uncontrolled increase of blood pressure	–
CC(C)C[C@H]1C(=O)N2CCC[C@H]2[C@]2(O)O[C@](NC(=O)[C@@H]3C=C4c5cccc6[nH]c(Br)c(c56)C[C@H]4N(C)C3)(C(C)C)C(=O)N12 [Bromocriptin]	–	–	The same applies
C#C[C@]1(O)CC[C@H]2[C@@H]3CCC4=Cc5oncc5C[C@]4(C)[C@H]3CC[C@@]21C [Danazol]	–	–	The same applies
